Series [1] in a line: ABTS radical cation scavenging activity. The protocol:
(§1) The scavenging activity of the compounds on the ABTS radical cation [ABTS,2,2′-azino-bis(3-ethylbenzothiazoline)-6-sulphonic acid] was measured according to the method of Zengin et al.[37] with slight modification. Briefly, ABTS^+ was produced directly by reacting a 7 mM ABTS solution with 2.45 mM potassium persulphate and allowing the mixture to incubate for 12–16 h in the dark at room temperature. Prior to initiating the assay, the ABTS solution was diluted with methanol to an absorbance of 0.700 ± 0.02 at 734 nm. The sample solution (1 ml) was added to the ABTS^+ solution (2 ml) and mixed, and the sample absorbance was recorded at 734 nm after 30 min incubation at room temperature. The corresponding IC50 value, which is the effective concentration at which 50% of DPPH/ABTS radicals are scavenged, was calculated for each compound and trolox, as a reference drug.

The nature of series [2]: FRAP (ferric reducing antioxidant power) assay. As for the experimental part: (§2) The FRAP (ferric reducing antioxidant power) assay was carried out as described by Zengin et al.[38]. The sample solution (0.1 ml) was added to the premixed FRAP reagent (2 ml) containing acetate buffer (0.3 M, pH 3.6), 2,4,6-tris(2-pyridyl)-s-triazine (10 mM) in 40 mM HCl, and ferric chloride (20 mM) in a ratio of 10/1/1 (v/v/v). The absorbance of the sample was subsequently recorded at 593 nm after 30 min incubation at room temperature. Both results were expressed as EC50 values, using trolox as a reference drug.

The nature of series [3]: Cupric ion reducing activity (CUPRAC). The protocol: The cupric ion reducing activity (CUPRAC) was determined according to the method of Zengin et al.[38]. The sample solution (0.5 ml) was added to a premixed reaction mixture containing CuCl2 (1 ml, 10 mM), neocuproine (1 ml, 7.5 mM), and NH4Ac buffer (1 ml, 1 M, pH 7.0). Similarly, a blank was prepared by adding the sample solution (0.5 ml) to a premixed reaction mixture (3 ml) without CuCl2. The absorbances of the sample and blank were subsequently recorded at 450 nm after 30 min incubation at room temperature. The absorbance of the blank was subtracted from that of the sample.
as §2

In a further series the target is T1, hMAO-B (Homo sapiens, UniProt P27338).
T1 sequence (P27338 1-520): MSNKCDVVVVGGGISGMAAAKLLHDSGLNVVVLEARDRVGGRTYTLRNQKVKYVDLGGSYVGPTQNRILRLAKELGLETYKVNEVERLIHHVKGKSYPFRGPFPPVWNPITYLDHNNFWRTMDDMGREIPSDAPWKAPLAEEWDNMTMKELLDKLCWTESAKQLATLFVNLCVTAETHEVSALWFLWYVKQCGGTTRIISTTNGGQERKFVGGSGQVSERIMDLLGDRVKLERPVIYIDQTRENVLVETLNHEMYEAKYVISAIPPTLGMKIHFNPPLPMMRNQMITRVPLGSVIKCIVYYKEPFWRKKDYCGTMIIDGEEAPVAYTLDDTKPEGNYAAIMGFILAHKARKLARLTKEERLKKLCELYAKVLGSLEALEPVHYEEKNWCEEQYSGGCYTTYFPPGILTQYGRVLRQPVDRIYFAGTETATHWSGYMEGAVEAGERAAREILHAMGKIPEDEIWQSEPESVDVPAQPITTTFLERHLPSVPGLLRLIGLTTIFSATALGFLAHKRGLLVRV
Nature of the series: hMAO-B inhibition, IC50 determination (kynuramine fluorescence). The series is classed as biochemical. As for the experimental part:
(§3) The procedure for the measurement of IC50 values for the inhibition of MAO has been reported. The enzyme reactions were prepared to a volume of […] in potassium phosphate buffer at pH 7.4 (100 mM, made isotonic with KCl) and contained kynuramine (50 μM) and the test inhibitors (0.003–100 µM). Stock solutions of the test inhibitors were prepared in DMSO and added to the reactions to yield 4% DMSO. The enzyme reactions were initiated with the addition of recombinant hMAO-A (0.0075 mg protein/mL) or hMAO-B (0.015 mg protein/mL) and incubated for 20 min at 37 °C. At endpoint, the reactions were terminated with 80 µL sodium hydroxide (2N) and the fluorescence of 4-hydroxyquinoline, the oxidation product of kynuramine, was measured (λex = 310; λem = 400 nm)[33]. 4-Hydroxyquinoline was quantified with a calibration curve (0.047–1.56 μM) and the rate of 4-hydroxyquinoline formation was fitted to the one site competition model of the Prism 5 software package (GraphPad). From the resulting sigmoidal plots, the IC50 values were estimated. All enzyme reactions were carried out in triplicate and IC50 values are given as the mean ± standard deviation (SD).

The nature of series [4]: DPPH radical scavenging activity. As for the experimental part: The radical scavenging effect of the compounds using the 1,1-diphenyl-2-picrylhydrazyl (DPPH) radical was estimated according to Zengin et al.[36]. The sample solution (1 ml) was added to 4 ml of a 0.004% solution of DPPH in methanol. The sample absorbance was recorded at 517 nm after 30 min incubation at room temperature in the dark.
as §1

Series [5] can be described thus: Phosphomolybdenum assay (PhosphoMo), total antioxidant activity. The note with it: concentration at which absorbance was 0.5. As for the experimental part:
The total antioxidant activity of the compounds was evaluated by phosphomolybdenum method according to Zengin et al.[35]. The sample solution (0.3 ml) was combined with 3 ml of reagent solution (0.6 M sulphuric acid, 28 mM sodium phosphate, and 4 mM ammonium molybdate) and the absorbance was recorded at 695 nm after 90 min incubation at 95 °C. The EC50, which is the effective concentration at which the absorbance was 0.5, was calculated for each compound and trolox, as a reference drug.

Series [6] can be described thus: Metal chelating activity on ferrous ions. The note with it: ferrozine. The protocol: Metal chelating activity on ferrous ions was evaluated by the method previously described. Briefly, the sample solution (2 ml) was added to FeCl2 solution (0.05 ml, 2 mM). The reaction was initiated by the addition of 5 mM ferrozine (0.2 ml). Similarly, a blank was prepared by adding the sample solution (2 ml) to FeCl2 solution (0.05 ml, 2 mM) and water (0.2 ml) without ferrozine. Then, the sample and blank absorbance were recorded at 562 nm after incubation for 10 min at room temperature. The absorbance of the blank was subtracted from that of the sample. EDTA was used as a positive control and this property was expressed as IC50 value for each compound.

Another series has as its target T2, hMAO-A (Homo sapiens, UniProt P21397).
T2 sequence (P21397 1-527): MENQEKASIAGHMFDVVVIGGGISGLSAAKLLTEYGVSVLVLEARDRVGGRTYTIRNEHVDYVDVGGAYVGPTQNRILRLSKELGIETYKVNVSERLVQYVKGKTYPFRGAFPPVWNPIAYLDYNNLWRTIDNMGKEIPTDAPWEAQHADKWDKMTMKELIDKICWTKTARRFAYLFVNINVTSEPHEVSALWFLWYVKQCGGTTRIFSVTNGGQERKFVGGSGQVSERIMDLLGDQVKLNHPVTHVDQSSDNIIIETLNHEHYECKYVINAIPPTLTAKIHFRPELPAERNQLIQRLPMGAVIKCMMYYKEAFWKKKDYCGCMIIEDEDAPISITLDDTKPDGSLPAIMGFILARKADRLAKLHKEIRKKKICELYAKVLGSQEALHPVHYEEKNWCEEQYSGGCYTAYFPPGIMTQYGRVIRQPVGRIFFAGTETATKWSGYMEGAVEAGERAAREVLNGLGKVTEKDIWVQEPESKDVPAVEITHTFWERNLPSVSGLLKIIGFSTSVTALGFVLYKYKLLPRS
Kind of series: hMAO-A inhibition, IC50 determination (kynuramine fluorescence). The series is classed as biochemical. The protocol: as §3

Where two headings read alike, the source gives them in different places. Where only a bound is given, the exact number is not on record here.

For the compound `O=[N+]([O-])c1cccc(-c2csc(NN=Cc3cccs3)n2)c1` [Compound 3, 1-(4-(3-Nitrophenyl)thiazol-2-yl)-2-(thiophen-2-ylmethylene)hydrazine], the IC50 is 1050 ± 10 µM in series [1], 1190 ± 10 µM in series [4], over 5000 µM in [6] and 57.2 µM against hMAO-A. Further, the EC50 amounted to 410 ± 20 µM in series [2], 590 ± 10 µM in series [3] and 1840 ± 180 µM in series [5]. Further, at hMAO-B (ratio (IC50 hMAO-A)/(IC50 hMAO-B)), the “Selectivity index (SI) for the MAO-B isoform” value worked out at 8412.

On to `CC(=NNc1nc(-c2cccc([N+](=O)[O-])c2)cs1)c1ccc2ccc3ccccc3c2c1` [Compound 34, 1-(4-(3-Nitrophenyl)thiazol-2-yl)-2-(1-(phenanthren-3-yl)ethylidene)hydrazine], for which the melting point was in the range of 255 to 257 °C. Further, the IC50 at hMAO-B (recombinant hMAO-B, kynuramine 50 μM, 20 min, 37 °C, read-out: IC50 hMAO-B) is 80.5 µM. In addition, the IC50 at hMAO-A (recombinant hMAO-A, kynuramine 50 μM, 20 min, 37 °C, read-out: IC50 hMAO-A) turned out to be 101 µM.

Source of the values: paper PMC6366404, “4-(3-Nitrophenyl)thiazol-2-ylhydrazone derivatives as antioxidants and selective hMAO-B inhibitors: synthesis, biological activity and computational analysis” (Journal of Enzyme Inhibition and Medicinal Chemistry, 2019).
